pKi: −log10 of the molar value. Where “and” joins values, the source holds several entries; their conditions need not be identical. Identical values can stand only once.
How the values were obtained:
Adenosine receptor A2a [1] = biological target: T1, Adenosine receptor A2a (Rattus norvegicus, UniProt P30543)
Description: (§1) Displacement [3H]-CGS-21,680 from Adenosine A2A receptor in rat striatal membrane.

[2] = biological target: Adenosine receptors; A1 & A2a (Rattus norvegicus) (UniProt P25099+P30543); test: Selectivity for adenosine A2a and A1 receptors; format: protein assay
Adenosine receptor A1 = biological target: T2, Adenosine receptor A1 (Rattus norvegicus, UniProt P25099); test: Tested for the displacement [3H]PIA from Adenosine A1 receptor in rat brain membrane; format: cell membranes
T2 sequence (P25099 whole entry): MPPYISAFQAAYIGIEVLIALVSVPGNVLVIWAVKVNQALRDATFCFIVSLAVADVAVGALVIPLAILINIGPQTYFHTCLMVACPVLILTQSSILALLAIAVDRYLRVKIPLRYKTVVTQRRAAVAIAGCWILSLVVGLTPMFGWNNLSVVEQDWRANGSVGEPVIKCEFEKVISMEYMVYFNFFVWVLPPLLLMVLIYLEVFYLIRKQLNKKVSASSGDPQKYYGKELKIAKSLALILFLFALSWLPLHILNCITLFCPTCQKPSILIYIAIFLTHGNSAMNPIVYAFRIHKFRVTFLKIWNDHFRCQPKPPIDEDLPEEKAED

Adenosine receptor A3 [3] = biological target: T3, Adenosine receptor A3 (Rattus norvegicus, UniProt P28647); test: Displacement of [125I]AB-MECA from rat Adenosine A3 receptor expressed in CHO cell membrane; format: cell membranes
T3 sequence (P28647 whole entry): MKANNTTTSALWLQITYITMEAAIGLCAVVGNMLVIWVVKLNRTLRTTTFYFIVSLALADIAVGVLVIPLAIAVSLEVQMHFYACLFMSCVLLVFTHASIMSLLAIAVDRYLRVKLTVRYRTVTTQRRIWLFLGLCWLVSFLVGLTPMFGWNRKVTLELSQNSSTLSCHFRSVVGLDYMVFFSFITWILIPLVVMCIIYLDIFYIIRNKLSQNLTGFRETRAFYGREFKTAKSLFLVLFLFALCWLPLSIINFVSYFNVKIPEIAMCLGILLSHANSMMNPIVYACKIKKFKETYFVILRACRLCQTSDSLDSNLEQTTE

Adenosine receptor A3 [4] = biological target: T4, Adenosine receptor A3 (Homo sapiens, UniProt P0DMS8); test: Displacement of [125I]AB-MECA from human Adenosine A3 receptor expressed in HEK293 cell membrane; format: cell membranes
T4 sequence (P0DMS8 whole entry): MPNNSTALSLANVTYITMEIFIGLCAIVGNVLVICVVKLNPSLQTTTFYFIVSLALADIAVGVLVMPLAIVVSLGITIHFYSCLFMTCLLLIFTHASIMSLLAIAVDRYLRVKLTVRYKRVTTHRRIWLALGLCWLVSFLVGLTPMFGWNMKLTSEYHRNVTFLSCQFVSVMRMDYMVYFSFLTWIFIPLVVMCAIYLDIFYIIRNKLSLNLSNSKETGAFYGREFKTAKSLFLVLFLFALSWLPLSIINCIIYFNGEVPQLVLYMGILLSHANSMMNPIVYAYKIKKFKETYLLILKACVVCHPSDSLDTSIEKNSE

[5] = biological target: Adenosine A1 receptor (Rattus norvegicus) (UniProt P25099); test: Selectivity for rat adenosine A3 and rat adenosine A1 receptors
[6] = biological target: Adenosine receptor A2a (Rattus norvegicus) (UniProt P30543); test: Displacement [3H]CGS-21680 from Adenosine A2A receptor in rat striatal membrane; format: cell membranes; parameters: concentration or dose not given beside the values; conditions: Striatum, concentration not given here
Adenosine receptor A2a (Rattus norvegicus), sequence (P30543 whole entry): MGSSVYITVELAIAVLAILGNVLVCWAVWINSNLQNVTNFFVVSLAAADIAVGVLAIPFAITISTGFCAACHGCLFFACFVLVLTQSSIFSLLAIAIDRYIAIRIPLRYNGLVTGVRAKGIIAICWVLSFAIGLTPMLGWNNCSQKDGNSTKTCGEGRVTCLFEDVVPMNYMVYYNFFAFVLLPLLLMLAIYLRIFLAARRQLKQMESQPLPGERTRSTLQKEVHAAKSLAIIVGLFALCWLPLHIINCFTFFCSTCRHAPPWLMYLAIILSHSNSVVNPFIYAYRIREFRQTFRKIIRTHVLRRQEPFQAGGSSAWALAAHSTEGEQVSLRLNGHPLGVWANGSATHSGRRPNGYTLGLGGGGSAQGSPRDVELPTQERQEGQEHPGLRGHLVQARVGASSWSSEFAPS

[7] = biological target: T5, Adenosine receptor A1 (Rattus norvegicus) (UniProt P25099); test: Displacement of [3H]PIA from Adenosine A1 receptor of rat brain membrane at 10e-4 M
T5 sequence (whole entry): T2 sequence (P25099 whole entry)

[8] = biological target: T6, Adenosine receptor A3 (Homo sapiens) (UniProt P0DMS8); test: Displacement of [125I]AB-MECA from human Adenosine A3 receptor expressed in HEK293 cell membrane at 10e-4 M; format: cell membranes
T6 sequence (whole entry): T4 sequence (P0DMS8 whole entry)

Adenosine receptor A2a [9] = biological target: T1, Adenosine receptor A2a; remark: listed apart in the source
Description: as §1

T1 sequence (P30543 whole entry): as above
Adenosine receptors; A1 & A2a (Rattus norvegicus), sequence (P30543 whole entry, looked up, one chain of several): as the sequence (P30543 whole entry) above

Row | Compound | pKi (Adenosine receptor A2a [1]) | Selectivity [2] | pKi (Adenosine receptor A1) | also measured
1 | O=c1c(-c2ccc(O)cc2)coc2cc(O)cc(O)c12 [GENISTEIN] | 4.44 | – | – | –
2 | CCOC(=O)c1sc(SC)c2c1CCCC2O (stereo not drawn) | 4.47 | 1.8 | 4.74 | pKi (Adenosine receptor A3 [3]): 4.81; pKi (Adenosine receptor A3 [4]): 4.45; Selectivity [5]: 0.84
3 | CCOC(=O)c1sc(SCc2ccccc2)c2c1CC(C)(C)CC2=O | – | > 17.6 | 6.25 | inhibition [6]: 34%
4 | CCOC(=O)c1sc(NN)c2c1CCCC2=O | 4.44 | 2.1 | 4.76 | –
5 | Nc1nc2ccc(Cl)cc2n2c(-c3ccccc3)nnc12 | 7.68 | – | – | –
6 | O=C(O)c1sc(SCc2ccccc2)c2c1CCCC2=O | 4.82 | 0.3 | 4.30 | pKi (Adenosine receptor A3 [3]): 4.38; pKi (Adenosine receptor A3 [4]): 3.93
7 | CCOC(=O)c1sc(S(C)(=O)=O)c2c1CC(C)(C)CC2=O | – | > 3.1 | 4.49 | inhibition [6]: 13%; pKi (Adenosine receptor A3 [3]): 4.29; Selectivity [5]: 1.58
8 | COc1cc(-c2oc3c(OC)cc(CCCO)cc3c2C=O)ccc1O | – | – | 7.77 | –
9 | CCOC(=O)c1sc(SC)c2c1CCCC2=O | 5.44 | 1.9 | 5.71 | pKi (Adenosine receptor A3 [3]): 4.82; Selectivity [5]: 7.88
10 | CSc1sc(C(=O)NN)c2c1C(O)CCC2 (stereo not drawn) | – | > 1.4 | 4.15 | inhibition [6]: 28.9%
11 | Nc1nc2ccc(Cl)cc2c2nc(-c3ccco3)nn12 [CGS-15943] | 5.48 | – | – | –
12 | CCOC(=O)c1sc(SC(C)CC)c2c1CC(C)(C)CC2=O (stereo not drawn) | 3.97 | 29.1 | 5.44 | –
13 | CSc1scc2c1C(=O)CCC2 | – | > 1 | – | inhibition [7]: 28%; inhibition [6]: < 10%
14 | CCOC(=O)c1sc(SCc2ccccc2)c2c1CCCC2=O | 5.87 | 1.9 | 6.14 and 6.15 | inhibition [8]: 24%; pKi (Adenosine receptor A2a [9]): 5.87
15 | CCOC(=O)c1sc(SC)c2c1CCC/C2=N/OC | – | > 1.4 | 4.16 | inhibition [6]: 22%
16 | CCCCSc1sc(C(=O)OCC)c2c1C(=O)CCC2 | 4.81 | 11 | 5.85 | –
17 | CCOC(=O)c1sc(SC(C)C)c2c1CCCC2=O | 5.33 | 2.6 | 5.75 | –
18 | C=CCSc1sc(C(=O)OCC)c2c1C(=O)CCC2 | 5.22 | 5.7 | 5.97 | –
19 | CCOC(=O)CSc1sc(C(=O)OCC)c2c1C(=O)CCC2 | 4.59 | 11.5 | 5.65 | pKi (Adenosine receptor A3 [3]): 4.99; Selectivity [5]: 4.59
20 | Nc1nc2ccccc2n2cc(-c3ccccc3)nc12 | 6.54 | – | 7.47 | –
21 | CCOC(=O)c1sc(SCC)c2c1CC(C)(C)CC2=O | 4.62 | – | – | –
22 | CSc1sc(C(=O)NN)c2c1C=CCC2 | – | > 1.9 | 4.29 | inhibition [6]: < 10%; pKi (Adenosine receptor A3 [3]): 4.88; Selectivity [5]: 0.25
23 | CCCSc1sc(C(=O)OCC)c2c1C(=O)CCC2 | 5.33 | 3.7 | 5.90 | –

— ChEMBL document CHEMBL1129657, “Tetrahydrobenzothiophenone derivatives as a novel class of adenosine receptor antagonists” (J Med Chem, 1996)
